From US9017645B2, “Homoglutamic acid derivatives” (Piramal Imaging SA, priority 2009, dated 2015)

System: NCI-H460 (human NSCLC) tumor bearing nude-rats
Test: PET imaging in NCI-H460 tumor bearing nude-rats
Type: in vivo, nude-rats (RH-Foxn1 nu/nu)
Details: 8.35 MBq i.v., PET at 60 min p.i. for 10 min
Experimental: FIG. 6: PET-Imaging of (2S)-2-amino-5-[3-[^18F]fluoropropyl]hexanedioic acid in H460 tumor bearing rats. 8.35 MBq of radioactive tracer was injected i.v. into rats. PET images were obtained using the Siemens Inveon PET/CT scanner from 60 min p.i. for 10 min.
PET imaging. (2S)-2-amino-5-[3-[^18F]fluoropropyl]hexanedioic acid was examined in NCI-H460 (human NSCLC) tumor bearing nude-rats (RH-Foxn1 nu/nu) using PET-Imaging. 8.35 MBq of (2S)-2-amino-5-[3-[^18F]fluoropropyl]hexanedioic acid was injected into the rat. PET images were acquired at 60 min p.i. for 10 min. […] 3.2% of the injected dose was taken up per gram of tumor as was determined by region of interest (ROI) analysis (FIG. 6).

N[C@@H](CCC(CCC[18F])C(=O)O)C(=O)O (stereo partly drawn) [(2S)-2-amino-5-[3-[^18F]fluoropropyl]hexanedioic acid]
tumor uptake by region of interest (ROI) analysis: 3.2 % of the injected dose per gra
visibility of the tumor in PET images: very well visible
